Values quoted from earlier work as cited in EP3815682A1, “A PERK KINASE INHIBITOR FOR TREATING DISEASES ASSOCIATED WITH ENDOPLASMIC RETICULUM STRESS” (Uniwersytet Medyczny w Lodzi, priority 2019, dated 2021).

Experiments:
pancreatic cells [1] = system: pancreatic cells
pancreatic cells [2] = conditions: reason for not entering clinical trials
[3] = molecular target: T1, PERK kinase and eIF2α protein phosphorylation (Homo sapiens, UniProt Q9NZJ5); conditions: Atkins et al.
T1 sequence (Q9NZJ5 30-1116): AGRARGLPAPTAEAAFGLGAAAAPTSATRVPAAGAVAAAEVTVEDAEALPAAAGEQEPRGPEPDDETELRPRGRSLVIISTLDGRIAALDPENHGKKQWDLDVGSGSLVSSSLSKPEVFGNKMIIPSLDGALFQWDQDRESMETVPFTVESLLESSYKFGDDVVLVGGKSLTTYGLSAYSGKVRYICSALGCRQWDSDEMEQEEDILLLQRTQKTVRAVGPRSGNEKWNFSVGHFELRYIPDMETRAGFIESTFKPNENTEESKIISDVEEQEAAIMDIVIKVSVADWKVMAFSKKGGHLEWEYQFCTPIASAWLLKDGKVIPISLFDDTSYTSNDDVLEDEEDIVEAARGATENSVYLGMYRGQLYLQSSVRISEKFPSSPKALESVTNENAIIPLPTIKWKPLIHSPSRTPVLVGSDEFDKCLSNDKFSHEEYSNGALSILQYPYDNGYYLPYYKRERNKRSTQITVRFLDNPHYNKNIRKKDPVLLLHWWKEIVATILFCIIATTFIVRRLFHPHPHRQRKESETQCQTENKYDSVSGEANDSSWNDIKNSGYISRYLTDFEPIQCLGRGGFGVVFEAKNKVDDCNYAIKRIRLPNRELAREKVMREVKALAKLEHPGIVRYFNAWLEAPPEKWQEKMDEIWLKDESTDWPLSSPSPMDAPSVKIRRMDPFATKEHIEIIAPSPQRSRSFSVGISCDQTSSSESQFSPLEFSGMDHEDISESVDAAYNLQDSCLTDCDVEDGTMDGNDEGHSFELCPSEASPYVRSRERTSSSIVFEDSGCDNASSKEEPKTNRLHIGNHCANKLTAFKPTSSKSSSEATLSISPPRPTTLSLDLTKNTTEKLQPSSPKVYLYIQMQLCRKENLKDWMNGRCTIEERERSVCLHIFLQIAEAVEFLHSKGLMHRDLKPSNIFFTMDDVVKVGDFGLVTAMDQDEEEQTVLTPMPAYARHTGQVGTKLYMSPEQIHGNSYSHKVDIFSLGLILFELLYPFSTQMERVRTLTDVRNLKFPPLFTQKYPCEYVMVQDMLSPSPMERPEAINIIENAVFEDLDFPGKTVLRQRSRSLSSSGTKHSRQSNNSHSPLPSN

[4] = not told
[5] = animals administered the inhibitor

Cn1cc(-c2ccc3c(c2)CCN3C(=O)Cc2cccc(C(F)(F)F)c2)c2c(N)ncnc21 [GSK2606414]
glycemia (pancreatic cells [1]; [5]): hyperglycemia
weight (pancreatic cells [1]; [5]): significant weight loss
effect on pancreatic cells (pancreatic cells [1]; mice): cytotoxic effect
level of phosphorylated forms of PERK and eIF2α (PERK and eIF2α; compared with mice not administered the inhibitor): substantially lower
protein synthesis in cells (PERK and eIF2α; mouse, in vivo): temporary restoration of protein synthesis

Cc1cccc(CC(=O)N2CCc3c2ccc(-c2cn(C)c4ncnc(N)c24)c3F)n1 [GSK2656157]
activity on pancreatic cells (pancreatic cells [2]): non-selective activity also on pancreatic cells
inhibition of PERK kinase and eIF2α protein phosphorylation [3]: effective inhibition

O=C(COc1ccc(Cl)cc1)NC1CCC(NC(=O)COc2ccc(Cl)cc2)CC1 (stereo not shown) [ISRIB]
permeability of the blood-brain barrier [4]: good permeability

O=C(/C=C/c1ccccc1)NC(NC(=S)Nc1cccc2cccnc12)C(Cl)(Cl)Cl (stereo not shown) [Salubrinal]
survival (eIF2α phosphorylation; compared with animals that did not receive the compound): died quicker
eIF2α phosphorylation (eIF2α phosphorylation; mouse, in vivo): increase
